Data set [1] can be described thus: Lethal dose in L1210-bearing female BDF1 mice. The class given is toxicity, organism-based. The settings on record: BDF1, mouse, in vivo.
The nature of data set [2]: In vitro antiviral activity against number of DNA virus was reported; Inactive. The class given is functional.
Data set [3] can be described thus: In vitro antiviral activity against number of RNA virus was reported; Inactive. The class given is functional.
For data set [4], the system named is Mus musculus. As to the kind of experiment: Compound was tested against L1210 infected BDF1 mice at 480 mg/kg expressed as percent increase in life span. It is filed as functional.
The species named for data set [5] is Mus musculus. The data set is described as follows: Compound was tested against L1210 infected BDF1 mice expressed as weight change at 24 hour. It is filed as functional.
For data set [6], the species on record is Mus musculus. The data set is described as follows: Compound was tested against L1210 infected BDF1 mice expressed as weight change at 72 hour. It is filed as functional.

Structures are written as SMILES. The source made the active and inactive calls. The rule behind the calls is not given here.

Usually LD50 stands for the dose at which mortality reaches 50%. The low end stands for a more toxic substance, the high end for a less toxic substance. With `NC(=O)c1nn(C2O[C@H](CO)[C@@H](O)[C@H]2O)cp1` (stereo partly specified), in data set [1], the LD50 is 480 mg/kg. In addition, the result in data set [2] and in data set [3] was inactive.

The term ILS denotes the gain in survival time of treated over control animals, in per cent. Read a high ILS as a large benefit in survival. In the data set on Mus musculus [4], `NC(=S)c1nn(C2O[C@H](CO)[C@@H](O)[C@H]2O)cp1` (stereo partly specified) had an ILS at 480 mg/kg of 25%. For the same compound, the Weight change in the data set filed under Mus musculus [5] is on record as -1.67 g; in the data set listed under Mus musculus [6], -0.67 g.

The values above are taken from ChEMBL document CHEMBL1125044, “1,2,4-Diazaphosphole nucleosides. Synthesis, structure, and antitumor activity of nucleosides with a lambda 3 phosphorus atom” (J Med Chem, 1990).
